Assay results from the NIST ThermoML archive (doi:10.1016/j.fluid.2008.01.004).
Numbers after ± are expanded uncertainties.

Tests used:
[1] = mn = molality of the nth substance listed, in mol/kg; conditions: 283.15 K; 101 kPa; Liquid; m2 = 0
[2] = wn = mass fraction of the nth substance listed; conditions: 101 kPa, Liquid; for speed of sound: Sing-around technique in a fixed-path interferometer

O [water] + O=P([O-])([O-])[O-].[Na+].[Na+].[Na+]
Conditions | mass density [kg/m3]
[1] | 999.699 ± 0.26

CCCO [propan-1-ol] + O
[2]
Conditions | mass density, 283.15 K [kg/m3] | mass density, 288.15 K [kg/m3] | mass density, 293.15 K [kg/m3] | mass density, 298.15 K [kg/m3] | mass density, 303.15 K [kg/m3] | speed of sound, 283.15 K [m/s] | speed of sound, 288.15 K [m/s] | speed of sound, 293.15 K [m/s] | speed of sound, 298.15 K [m/s] | speed of sound, 303.15 K [m/s]
w1 = 0.05 | 992.405 ± 0.29 | 991.687 ± 0.31 | 990.671 ± 0.31 | 989.387 ± 0.31 | 987.86 ± 0.29 | 1499 ± 1.1 | 1512.2 ± 1.1 | 1523.9 ± 1.1 | 1533.8 ± 1.1 | 1542.2 ± 1.1
w1 = 0.1 | 987.187 ± 0.29 | 986.194 ± 0.29 | 984.913 ± 0.29 | 983.372 ± 0.29 | 981.595 ± 0.29 | 1548.6 ± 1.1 | 1556.5 ± 1.1 | 1563.3 ± 1.1 | 1568.7 ± 1.1 | 1572.9 ± 1.1
w1 = 0.15 | 982.892 ± 0.3 | 981.496 ± 0.31 | 979.828 ± 0.31 | 977.921 ± 0.31 | 975.791 ± 0.31 | 1585.2 ± 1.1 | 1587.6 ± 1.1 | 1589 ± 1.1 | 1589.2 ± 1.1 | 1588.6 ± 1.1
